This is an account of results in patent US9409905B2, “Antibacterial compounds and methods for use” (PTC THERAPEUTICS, INC., priority 2011, dated 2016).

Converted amounts (≈) assume the structure as drawn. Where only a bound is given, the exact number is not on record here.

The test system of assay [1] is Escherichia coli (E. coli) BAS849. As to the kind of experiment: Antibacterial activity, microbroth dilution MIC (Table 1). In kind it is cell-based. The following applies: microbroth dilution, super sensitive Gram-negative E. coli BAS849, read-out: MIC, BAS849. In outline: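 MIC (μg/mL) is taken as the lowest concentration with no macroscopically visible growth. Strains tested by microbroth dilution: Gram-positive S. aureus 29213, control Gram-negative E. coli 25922, and super-sensitive E. coli BAS849.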

Assay [2] deals with Staphylococcus aureus (S. aureus) 29213. The description is as above. The format is cell-based. The following applies: microbroth dilution, Gram-positive S. aureus 29213, read-out: MIC, 29213. The procedure, abridged: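 Read-out: visual absence of growth. The lowest concentration meeting this gives the MIC, expressed in μg/mL, with microbroth dilution as the method.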
In the next assay the test system is E. coli 25922. The description is as above. The format is cell-based, Escherichia coli. The following applies: Escherichia coli; microbroth dilution; control Gram-negative E. coli 25922 strain; read-out: MIC, 25922. In outline:
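Growth inhibition by microbroth dilution. MIC = lowest μg/mL with no visible growth. Strain 25922 is the control Gram-negative; BAS849 is hypersensitive.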
In general terms: Dilution methods test growth across graded concentrations, often in twofold steps.

The next assay relates to E. coli LZ3111. As to the kind of experiment: Antibacterial activity, MIC, quinolone resistant strain (Table 2). The format is cell-based. The following applies: Escherichia coli, LZ3111, read-out: MIC LZ3111. The procedure, abridged: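 Broth microdilution. Read-out: MIC in μg/mL, taken as lowest concentration with no macroscopically visible growth.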
A further assay deals with E. coli ELZ4000. The assay can be described thus: Antibacterial activity, MIC, multi-drug resistant clinical isolate (Table 3). In kind it is cell-based. The following applies: Escherichia coli, ELZ4000, read-out: MIC ELZ4000. The procedure, abridged: (§1)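 MIC (μg/mL) read as lowest concentration with no macroscopically visible growth, determined by microbroth dilution.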

In another assay the test system is E. coli ELZ4251. Described as above. The format is cell-based. The following applies: Escherichia coli. The procedure, abridged:
as §1

In assay [3] the test system is Acinetobacter baumannii (A. baumannii) BAA747. The assay can be described thus: Antibacterial activity, MIC (Table 4). In kind it is cell-based. The following applies: A. baumannii BAA747, read-out: MIC, BAA747. In outline:
(§2)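 Values are minimum inhibitory concentrations in μg/mL from broth microdilution, meaning no macroscopically visible growth at that concentration. Resistant MXX isolates are multi-drug resistant clinical strains.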

Assay [4] has as its system Klebsiella pneumoniae (K. pneumoniae) 35657. The assay can be described thus: Antibacterial activity, MIC (Table 4). The format is cell-based. The following applies: K. pneumoniae 35657, read-out: MIC, 35657. In outline:
as §2

The test system of another assay is A. baumannii MXX2240. As to the kind of experiment: Antibacterial activity, MIC, resistant strain (Table 4). In kind it is cell-based. The following applies: Acinetobacter baumannii, MXX2240; resistant A. baumannii MMX2240, multi-drug resistant clinical isolate; read-out: MIC, MMX2240. In outline: as §2
For a further assay, the system named is K. pneumoniae MXX1232. The assay is described as above. In kind it is cell-based. The following applies: Klebsiella pneumoniae, MXX1232; resistant K. pneumoniae MMX1232, multi-drug resistant clinical isolate; read-out: MIC, MMX1232. In outline:
as §2

Assay [5] concerns Pseudomonas aeruginosa (P. aeruginosa) 27853. The assay can be described thus: Antibacterial activity, MIC (Table 5). The format is cell-based. The following applies: P. aeruginosa 27853, read-out: MIC, 27853. The procedure, abridged:
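Microbroth dilution; MIC (μg/mL) = lowest concentration with no macroscopically visible growth.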

In assay [6] the test system is Haemophilus influenzae (H. influenzae) 49247. The assay can be described thus: Antibacterial activity, MIC (Table 6). In kind it is cell-based. The procedure, abridged: (§3)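 Broth microdilution MIC, read as the lowest drug concentration preventing macroscopically visible growth under test conditions and reported in μg/mL.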
For assay [7], the system named is Moraxella catarrhalis (M. catarrhalis) 25238. The assay can be described thus: Antibacterial activity, MIC (Table 7). The format is cell-based. The procedure, abridged: as §3
The subject of assay [8] is Neisseria meningitidis (N. meningitidis) 13090. The assay can be described thus: Antibacterial activity, MIC (Table 8). The format is cell-based. The procedure, abridged: as §3

On to `Cc1c(-c2ccc3c(c2)cc(CN(C)C)n3C)[nH]c(=O)c(C(=O)O)c1O` [Cpd 314, 6-(2-((dimethylamino)methyl)-1-methyl-1H-indol-5-yl)-4-hydroxy-5-methyl-2-oxo-1,2-dihydropyridine-3-carboxylic acid], for which the MIC in [1] is less than 1 mg/L; in [2], 12.5 to 150 mg/L (≈ 35.2 to 422 µM); in the assay on E. coli 25922, 3.5 to 12.5 mg/L (≈ 9.85 to 35.2 µM); in the assay on E. coli LZ3111 it was 1 to 3.5 mg/L (≈ 2.81 to 9.85 µM); with E. coli ELZ4000, 3.5 to 12.5 mg/L (≈ 9.85 to 35.2 µM); against E. coli ELZ4251 it was 1 to 3.5 mg/L (≈ 2.81 to 9.85 µM). For the same compound, the MIC in [3] lay in the range of 3.5 to 12.5 mg/L (≈ 9.85 to 35.2 µM); in assay [4] it was 3.5 to 12.5 mg/L (≈ 9.85 to 35.2 µM); in the assay on A. baumannii MXX2240 it was 1 to 3.5 mg/L (≈ 2.81 to 9.85 µM); in the assay on K. pneumoniae MXX1232, 12.5 to 150 mg/L (≈ 35.2 to 422 µM); in [5], 12.5 to 150 mg/L (≈ 35.2 to 422 µM); in assay [6] it was 1 to 3.5 mg/L (≈ 2.81 to 9.85 µM). The values for the MIC in [7] and in assay [8] were 3.5 to 12.5 mg/L (≈ 9.85 to 35.2 µM) and less than 1 mg/L, respectively.
In the case of `Cc1c(-c2ccc3c(c2)cc(CNCC2CC2)n3C)[nH]c(=O)c(C(=O)O)c1O` [Cpd 315, 6-(2-((cyclopropylmethylamino)methyl)-1-methyl-1H-indol-5-yl)-4-hydroxy-5-methyl-2-oxo-1,2-dihydropyridine-3-carboxylic acid], the MIC in assay [1] was less than 1 mg/L; in [2], 12.5 to 150 mg/L (≈ 32.8 to 393 µM); in the assay with E. coli 25922 it was 1 to 3.5 mg/L (≈ 2.62 to 9.18 µM); with E. coli LZ3111, less than 1 mg/L; with E. coli ELZ4000, 1 to 3.5 mg/L (≈ 2.62 to 9.18 µM); against E. coli ELZ4251, less than 1 mg/L. Also, the MIC in assay [3] lay in the range of 1 to 3.5 mg/L (≈ 2.62 to 9.18 µM); in [4] it was 1 to 3.5 mg/L (≈ 2.62 to 9.18 µM); with A. baumannii MXX2240 it was 1 to 3.5 mg/L (≈ 2.62 to 9.18 µM); in the assay with K. pneumoniae MXX1232, 12.5 to 150 mg/L (≈ 32.8 to 393 µM); in [5] it was 12.5 to 150 mg/L (≈ 32.8 to 393 µM); in [6], 1 to 3.5 mg/L (≈ 2.62 to 9.18 µM). Moreover, the MIC in [7] was 3.5 to 12.5 mg/L (≈ 9.18 to 32.8 µM); in assay [8], less than 1 mg/L.
On to `Cc1c(-c2ccc3c(c2)cc(CN2CCC2)n3C)[nH]c(=O)c(C(=O)O)c1O` [Cpd 316, 6-(2-(azetidin-1-ylmethyl)-1-methyl-1H-indol-5-yl)-4-hydroxy-5-methyl-2-oxo-1,2-dihydropyridine-3-carboxylic acid], for which the MIC is less than 1 mg/L in assay [1]; 12.5 to 150 mg/L (≈ 34 to 408 µM) in assay [2]; 1 to 3.5 mg/L (≈ 2.72 to 9.53 µM) with E. coli 25922; less than 1 mg/L with E. coli LZ3111; 3.5 to 12.5 mg/L (≈ 9.53 to 34 µM) in the assay on E. coli ELZ4000; 3.5 to 12.5 mg/L (≈ 9.53 to 34 µM) with E. coli ELZ4251. The MIC in assay [3] lay in the range of 3.5 to 12.5 mg/L (≈ 9.53 to 34 µM); in assay [4] it was 3.5 to 12.5 mg/L (≈ 9.53 to 34 µM); in the assay on A. baumannii MXX2240, 1 to 3.5 mg/L (≈ 2.72 to 9.53 µM); in the assay with K. pneumoniae MXX1232, 12.5 to 150 mg/L (≈ 34 to 408 µM); in assay [5], 12.5 to 150 mg/L (≈ 34 to 408 µM); in assay [6] it was 1 to 3.5 mg/L (≈ 2.72 to 9.53 µM). Also, the values for the MIC in assay [7] and in assay [8] were 3.5 to 12.5 mg/L (≈ 9.53 to 34 µM) and 12.5 to 150 mg/L (≈ 34 to 408 µM), respectively.
As for `CNCc1cc2cc(-c3[nH]c(=O)c(C(=O)O)c(O)c3C)ccc2n1C` [Cpd 317, 4-hydroxy-5-methyl-6-(1-methyl-2-((methylamino)methyl)-1H-indol-5-yl)-2-oxo-1,2-dihydropyridine-3-carboxylic acid], the MIC in assay [1] is less than 1 mg/L; in assay [2], 12.5 to 150 mg/L (≈ 36.6 to 439 µM); in the assay with E. coli 25922, 1 to 3.5 mg/L (≈ 2.93 to 10.3 µM); in the assay with E. coli LZ3111 it was less than 1 mg/L; with E. coli ELZ4000, 1 to 3.5 mg/L (≈ 2.93 to 10.3 µM); with E. coli ELZ4251 it was less than 1 mg/L. Also, the MIC is 3.5 to 12.5 mg/L (≈ 10.3 to 36.6 µM) in [3]; 1 to 3.5 mg/L (≈ 2.93 to 10.3 µM) in [4]; 1 to 3.5 mg/L (≈ 2.93 to 10.3 µM) with A. baumannii MXX2240; 3.5 to 12.5 mg/L (≈ 10.3 to 36.6 µM) in the assay on K. pneumoniae MXX1232; 12.5 to 150 mg/L (≈ 36.6 to 439 µM) in assay [5]; 1 to 3.5 mg/L (≈ 2.93 to 10.3 µM) in assay [6]. Besides, the MIC in assay [7] was 3.5 to 12.5 mg/L (≈ 10.3 to 36.6 µM); in [8] it was less than 1 mg/L.
